The source of these data is US20250171447A1, “ADENOSINE RECEPTOR ANTAGONISTS, PHARMACEUTICAL COMPOSITIONS AND THEIR USE THEREOF” (Merck Sharp & Dohme LLC, priority 2022, published 2025).

pIC50: −log10 of the molar value.

Chain of human A2B adenosine receptor (P29275 whole entry): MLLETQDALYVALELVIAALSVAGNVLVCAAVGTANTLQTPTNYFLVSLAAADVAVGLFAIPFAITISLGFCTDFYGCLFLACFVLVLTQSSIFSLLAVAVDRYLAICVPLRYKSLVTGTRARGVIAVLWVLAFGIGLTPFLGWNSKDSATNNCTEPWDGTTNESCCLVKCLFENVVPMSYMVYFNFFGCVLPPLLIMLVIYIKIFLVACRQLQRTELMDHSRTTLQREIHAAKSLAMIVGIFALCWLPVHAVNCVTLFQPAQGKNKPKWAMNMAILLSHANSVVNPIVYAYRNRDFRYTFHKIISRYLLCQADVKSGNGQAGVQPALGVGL

In one experiment the target is human A2A adenosine receptor (Homo sapiens (Human), UniProt P29274). Kind of experiment: A2A receptor affinity binding assay (radioligand filtration binding or SPA, [3H]SCH58261). The conditions noted are these: membranes from HEK293 or CHO cells expressing human A2A; Method (A) filtration or Method (B) SPA.
Chain of human A2A adenosine receptor (P29274 whole entry): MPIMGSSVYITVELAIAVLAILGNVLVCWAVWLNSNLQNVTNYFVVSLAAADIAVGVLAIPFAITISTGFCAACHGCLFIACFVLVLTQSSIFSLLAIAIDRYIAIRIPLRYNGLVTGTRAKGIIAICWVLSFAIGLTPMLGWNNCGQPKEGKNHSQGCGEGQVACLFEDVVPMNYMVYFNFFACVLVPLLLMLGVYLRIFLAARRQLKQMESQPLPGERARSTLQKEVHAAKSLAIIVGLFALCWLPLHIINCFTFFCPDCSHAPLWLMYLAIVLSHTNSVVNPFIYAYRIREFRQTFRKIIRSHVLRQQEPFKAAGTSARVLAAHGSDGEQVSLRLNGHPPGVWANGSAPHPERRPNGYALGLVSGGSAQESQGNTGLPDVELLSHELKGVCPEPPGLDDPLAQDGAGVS
For the compound `COc1cccc2c1nc(N)n1nc(C3CC3c3cnc(C)nc3)nc21` (stereo not drawn) [Ex-26, 7-methoxy-2-[2-(2-methylpyrimidin-5-yl)cyclopropyl][1,2,4] triazolo[1,5-c] quinazolin-5-amine], the pIC50 (as a rule, −log10 of the IC50, conventionally taken in molar units) is 7.91. Same read-out and setting: to `COc1cccc2c1nc(N)n1nc(C3CC3c3ccccc3[C@H](C)O)nc21` (stereo partly drawn) [Ex-15, (1S)-1-{2-[2-(5-amino-7-methoxy[1,2,4]triazolo [1,5-c]quinazolin-2-yl)cyclopropyl]phenyl} ethan-1-ol] belongs 8.47. Still for that read-out and setting: next, `COc1cccc2c1nc(N)n1nc(C3CC3c3ccc4c(c3)CCNC4)nc21` (stereo not drawn) [Ex-38, 7-methoxy-2-[(1r,2r)-2-(1,2,3,4-tetrahydroisoquinolin-6-yl)cyclopropyl]-1,10b-dihydro[1,2,4]triazolo [1,5-c]quinazolin-5-amine]: 8.96; `COc1cccc2c1nc(N)n1nc(C3(CO)CC3)nc21` [Ex-30, [1-(5-amino-7-methoxy[1,2,4]triazolo [1,5-c]quinazolin-2-yl)cyclopropyl]methanol]: 7.37. Still for that read-out and setting: to `COc1cccc2c1nc(N)n1nc([C@@H]3C[C@H]3c3ccc(C(C)(C)O)cc3)nc21` [Ex-1, 2-(4-((1r,2r)-2-(5-amino-7-methoxy-[1,2,4]triazolo[1,5-c]quinazolin-2-yl)cyclopropyl)phenyl)propan-2-ol] belongs 7.76; to `COc1cccc2c1nc(N)n1nc(C3CC3c3ccc(C)nc3)nc21` (stereo not drawn) [Ex-11, 7-methoxy-2-[2-(6-methylpyridin-3-yl)cyclopropyl][1,2,4] triazolo[1,5-c] quinazolin-5-amine], 8.51.

`COc1cccc2c1nc(N)n1nc([C@H]3C[C@@H](c4ccc(C(C)(C)N)c(C)n4)C3)nc21` (single isomer, unassigned) [Ex-118, 2-{cis-3-[5-(2-aminopropan-2-yl)-6-methylpyridin-2-yl]cyclobutyl}-7-methoxy[1,2,4]triazolo[1,5-c]quinazolin-5-amine] gave a pIC50 of 8.32. The same measure, in the same setting: next, `COc1cc(F)cc2c1nc(N)n1nc([C@H]3C[C@@H](c4ccccc4C(C)(C)O)C3)nc21` (single isomer, unassigned) [Ex-52]: 8.52; `COc1cccc2c1nc(N)n1nc([C@H]3C[C@H](c4ncc5c(n4)CNC5)C3)nc21` (single isomer, unassigned) [Ex-108, 2-((trans)-3-(6,7-dihydro-5H-pyrrolo[3,4-d]pyrimidin-2-yl)cyclobutyl)-7-methoxy-[1,2,4]triazolo[1,5-c]quinazolin-5-amine]: 7.97; `COc1cccc2c1nc(N)n1nc([C@H]3C[C@@H](c4ccc(C(N)C(F)F)cn4)C3)nc21` (stereo partly drawn) [Ex-74, 2-{cis-3-[5-(1-amino-2,2-difluoroethyl)pyridin-2-yl]cyclobutyl}-7-methoxy[1,2,4]triazolo[1,5-c]quinazolin-5-amine]: 8.40. Still for that read-out and setting: to `COc1cccc2c1nc(N)n1nc([C@H]3C[C@H](c4ccc(C(C)N)cn4)C3)nc21` (stereo partly drawn) [Ex-72, 2-{trans-3-[5-(1-aminoethyl)pyridin-2-yl]cyclobutyl}-7-methoxy[1,2,4]triazolo[1,5-c]quinazolin-5-amine] belongs 8.10; to `COc1cccc2c1nc(N)n1nc([C@H]3C[C@@H](c4ccc(C5(N)CC(F)(F)C5)cn4)C3)nc21` [Ex-140, 2-((1s,3s)-3-(5-(1-amino-3,3-difluorocyclobutyl)pyridin-2-yl)cyclobutyl)-7-methoxy-[1,2,4]triazolo[1,5-c]quinazolin-5-amine], 8.27; to `COc1cccc2c1nc(N)n1nc([C@H]3C[C@@H](c4ccc([C@@H](N)C(F)(F)F)nc4)C3)nc21` [Ex-95, 2-[(1s,3s)-3-{6-[(1R)-1-amino-2,2,2-trifluoroethyl]pyridin-3-yl}cyclobutyl]-7-methoxy[1,2,4]triazolo[1,5-c]quinazolin-5-amine], 8.54. On the same count and under the same terms, to `COc1cccc2c1nc(N)n1nc([C@H]3C[C@@H](c4ncc(C(C)(C)N)cc4F)C3)nc21` [Ex-86, 2-{cis-3-[5-(2-aminopropan-2-yl)-3-fluoropyridin-2-yl]cyclobutyl}-7-methoxy[1,2,4]triazolo[1,5-c]quinazolin-5-amine] belongs 7.90. In turn, `COc1cccc2c1nc(N)n1nc([C@H]3C[C@H](c4cnc(C(C)(C)N)c(C)n4)C3)nc21` [Ex-121, 2-((1r,3r)-3-(5-(2-aminopropan-2-yl)-6-methylpyrazin-2-yl)cyclobutyl)-7-methoxy-[1,2,4]triazolo[1,5-c]quinazolin-5-amine] showed a pIC50 of 8.43. The compound `COc1cccc2c1nc(N)n1nc([C@H]3C[C@H](c4ncc(C(C)(C)N)nc4C(F)(F)F)C3)nc21` [Ex-126, 2-{trans-3-[5-(2-aminopropan-2-yl)-3-(trifluoromethyl)pyrazin-2-yl]cyclobutyl}-7-methoxy[1,2,4]triazolo[1,5-c]quinazolin-5-amine] showed a pIC50 of 8.34. The pIC50 values of the last two compounds are within 0.2 log units of each other. Still for that read-out and setting: next, `COc1cc(F)cc2c1nc(N)n1nc([C@H]3C[C@@H](c4ccc(C(C)(C)O)cc4)C3)nc21` [Ex-50, 2-{4-[cis-3-(5-amino-9-fluoro-7-methoxy [1,2,4]triazolo [1,5-c]quinazolin-2-yl)cyclobutyl]phenyl} propan-2-ol]: 9.00. In turn, `COc1cccc2c1nc(N)n1nc([C@H]3C[C@H](c4ncc(C5(O)COC5)cc4C)C3)nc21` [Ex-120, 3-{6-[trans-3-(5-amino-7-methoxy[1,2,4]triazolo[1,5-c]quinazolin-2-yl)cyclobutyl]-5-methylpyridin-3-yl}oxetan-3-ol] had a pIC50 of 9.30. The same measure, in the same setting: to `COc1cccc2c1nc(N)n1nc([C@H]3C[C@H](c4cnc(N5CCN[C@H](C)C5)c(C)c4)C3)nc21` [Ex-102, 7-methoxy-2-(trans-3-{5-methyl-6-[(3R)-3-methylpiperazin-1-yl]pyridin-3-yl}cyclobutyl)[1,2,4]triazolo[1,5-c]quinazolin-5-amine] belongs 8.82; to `COc1cccc2c1nc(N)n1nc([C@H]3C[C@@H](c4ccc([C@@H](N)C(F)F)cn4)C3)nc21` (single isomer, unassigned) [Ex-107], 8.09; to `Cc1nc(C(C)(C)N)cnc1[C@H]1C[C@H](c2nc3c4cccc(F)c4nc(N)n3n2)C1` [Ex-133, 2-{trans-3-[5-(2-aminopropan-2-yl)-3-methylpyrazin-2-yl]cyclobutyl}-7-fluoro[1,2,4]triazolo[1,5-c]quinazolin-5-amine], 8.24.

In turn, `Cc1nc(C(C)(C)N)cnc1[C@H]1C[C@@H](c2nc3c4cccc(F)c4nc(N)n3n2)C1` [Ex-134, 2-{cis-3-[5-(2-aminopropan-2-yl)-3-methylpyrazin-2-yl]cyclobutyl}-7-fluoro[1,2,4]triazolo[1,5-c]quinazolin-5-amine] showed a pIC50 of 6.83. Against the preceding compound, the pIC50 is 1.41 log units lower.

For `COc1cccc2c1nc(N)n1nc([C@H]3C[C@@H](c4cnc(N5CCN[C@H](C)C5)c(C)c4)C3)nc21` [Ex-101, 7-methoxy-2-(cis-3-{5-methyl-6-[(3R)-3-methylpiperazin-1-yl]pyridin-3-yl}cyclobutyl)[1,2,4]triazolo[1,5-c]quinazolin-5-amine], the pIC50 is 9.15.

For `COc1cccc2c1nc(N)n1nc([C@H]3C[C@@H](c4ccc([C@H](N)C(F)F)cn4)C3)nc21` (single isomer, unassigned) [Ex-105], the pIC50 is 8.57.

Turning to `COc1cccc2c1nc(N)n1nc([C@H]3C[C@@H](c4ccc(C(N)C(F)(F)F)cc4)C3)nc21` (single isomer, unassigned) [Ex-76, 2-{cis-3-[4-(1-amino-2,2,2-trifluoroethyl)phenyl]cyclobutyl}-7-methoxy[1,2,4]triazolo[1,5-c]quinazolin-5-amine], the pIC50 is 9.30.

In turn, `Cc1nc(C(C)(C)N)cnc1[C@H]1C[C@H](c2nc3c4cccc(Cl)c4nc(N)n3n2)C1` [Ex-127, 2-((1r,3r)-3-(5-(2-aminopropan-2-yl)-3-methylpyrazin-2-yl)cyclobutyl)-7-chloro-[1,2,4]triazolo[1,5-c]quinazolin-5-amine] had a pIC50 of 8.54. This pIC50 lies 0.76 log units lower than the previous one. Same read-out and setting: next, `COc1cccc2c1nc(N)n1nc([C@H]3C[C@H](c4ccc([C@H](N)C(F)F)cn4)C3)nc21` (single isomer, unassigned) [Ex-104]: 8.59; `COc1cccc2c1nc(N)n1nc([C@H]3C[C@H](c4ccc(C(C)(C)N)c(C)n4)C3)nc21` (single isomer, unassigned) [Ex-117, 2-{trans-3-[5-(2-aminopropan-2-yl)-6-methylpyridin-2-yl]cyclobutyl}-7-methoxy[1,2,4]triazolo[1,5-c]quinazolin-5-amine]: 8.09; `COc1cccc2c1nc(N)n1nc([C@H]3C[C@H](c4ccc([C@@H](N)C(F)(F)F)cn4)C3)nc21` (single isomer, unassigned) [Ex-93]: 8.64. As for `COc1cccc2c1nc(N)n1nc([C@H]3C[C@@H](c4ccc(C(C)(C)O)cc4)C3)nc21` [Ex-42, 2-(4-((1s,3s)-3-(5-amino-7-methoxy-[1,2,4]triazolo[1,5-c]quinazolin-2-yl)cyclobutyl)phenyl)propan-2-ol], the pIC50 was 9.22. This pIC50 lies 0.58 log units higher than the previous one. Still for that read-out and setting: next, `COc1cccc2c1nc(N)n1nc([C@H]3C[C@@H](c4ncc(C5(N)COC5)cc4C)C3)nc21` [Ex-123, 2-{cis-3-[5-(3-aminooxetan-3-yl)-3-methylpyridin-2-yl]cyclobutyl}-7-methoxy[1,2,4]triazolo[1,5-c]quinazolin-5-amine]: 8.74.

Another experiment has as its target human A2B adenosine receptor (Homo sapiens (Human), UniProt P29275). Kind of experiment: A2B binding affinity radioligand filtration binding assay. To be noted: membranes from HEK293 cells expressing human A2B; tritiated proprietary A2B antagonist.
As to `COc1cccc2c1nc(N)n1nc(C3CC3c3cnc(C)nc3)nc21` (stereo not drawn) [Ex-26, 7-methoxy-2-[2-(2-methylpyrimidin-5-yl)cyclopropyl][1,2,4] triazolo[1,5-c] quinazolin-5-amine], the pIC50 was 6.14. `COc1cccc2c1nc(N)n1nc(C3CC3c3ccccc3[C@H](C)O)nc21` (stereo partly drawn) [Ex-15, (1S)-1-{2-[2-(5-amino-7-methoxy[1,2,4]triazolo [1,5-c]quinazolin-2-yl)cyclopropyl]phenyl} ethan-1-ol] had a pIC50 of 5.74. On the same count and under the same terms, next, `COc1cccc2c1nc(N)n1nc(C3CC3c3ccc4c(c3)CCNC4)nc21` (stereo not drawn) [Ex-38, 7-methoxy-2-[(1r,2r)-2-(1,2,3,4-tetrahydroisoquinolin-6-yl)cyclopropyl]-1,10b-dihydro[1,2,4]triazolo [1,5-c]quinazolin-5-amine]: 8.51; `COc1cccc2c1nc(N)n1nc(C3(CO)CC3)nc21` [Ex-30, [1-(5-amino-7-methoxy[1,2,4]triazolo [1,5-c]quinazolin-2-yl)cyclopropyl]methanol]: 6.04; `COc1cccc2c1nc(N)n1nc([C@@H]3C[C@H]3c3ccc(C(C)(C)O)cc3)nc21` [Ex-1, 2-(4-((1r,2r)-2-(5-amino-7-methoxy-[1,2,4]triazolo[1,5-c]quinazolin-2-yl)cyclopropyl)phenyl)propan-2-ol]: 7.58.

In turn, `COc1cccc2c1nc(N)n1nc(C3CC3c3ccc(C)nc3)nc21` (stereo not drawn) [Ex-11, 7-methoxy-2-[2-(6-methylpyridin-3-yl)cyclopropyl][1,2,4] triazolo[1,5-c] quinazolin-5-amine] gave a pIC50 of 7.11. Same read-out and setting: next, `COc1cccc2c1nc(N)n1nc(C3CC3c3nc4ccccc4n3C)nc21` (stereo not drawn) [Ex-3, 7-methoxy-2-[2-(1-methyl-1H-benzimidazol-2-yl)cyclopropyl][1,2,4] triazolo[1,5-c] quinazolin-5-amine]: 8.54. `COc1cccc2c1nc(N)n1nc([C@H]3C[C@H](c4ncc(C(C)(C)N)cc4C)C3)nc21` [Ex-83, 2-((1r,3r)-3-(5-(2-aminopropan-2-yl)-3-methylpyridin-2-yl)cyclobutyl)-7-methoxy-[1,2,4]triazolo[1,5-c]quinazolin-5-amine] showed a pIC50 of 8.80.
